From PubChem BioAssay (NCI)
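GI50 = concentration required for 50% inhibition of growth. TGI: concentration producing complete growth inhibition.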

Columns and labels:
Assay in all cases: NCI-60 cell line screen, 384-well format
NCI-H522 lung = system: NCI-H522 lung
SF-295 CNS = system: SF-295 CNS
OVCAR-8 ovarian = system: OVCAR-8 ovarian
A549 NSCLC = system: A549 NSCLC
HT29 colon = system: HT29 colon
NCI-H460 NSCLC = system: NCI-H460 NSCLC
NCI-H226 lung = system: NCI-H226 lung
RXF 393 renal = system: RXF 393 renal
OVCAR-5 ovarian = system: OVCAR-5 ovarian
SK-MEL-5 melanoma = system: SK-MEL-5 melanoma
SK-MEL-28 melanoma = system: SK-MEL-28 melanoma
MALME-3M melanoma = system: MALME-3M melanoma
CCRF-CEM leukemia = system: CCRF-CEM leukemia
MCF7 breast = system: MCF7 breast
HL-60(TB) leukemia = system: HL-60(TB) leukemia
786-0 renal = system: 786-0 renal
OVCAR-4 ovarian = system: OVCAR-4 ovarian
NCI-H322M lung = system: NCI-H322M lung
SNB-75 CNS = system: SNB-75 CNS
SF-268 CNS = system: SF-268 CNS
PC-3 prostate = system: PC-3 prostate
U251 glioblastoma = system: U251 glioblastoma
RPMI-8226 leukemia = system: RPMI-8226 leukemia
SK-OV-3 ovarian = system: SK-OV-3 ovarian
NCI/ADR-RES ovarian = system: NCI/ADR-RES ovarian
HCC-2998 colon = system: HCC-2998 colon
MDA-MB-435 melanoma = system: MDA-MB-435 melanoma
NCI-H23 lung = system: NCI-H23 lung
UACC-257 melanoma = system: UACC-257 melanoma
SNB-19 CNS = system: SNB-19 CNS
SN12C renal = system: SN12C renal
A498 renal = system: A498 renal
EKVX NSCLC = system: EKVX NSCLC
TK-10 renal = system: TK-10 renal
BT-549 breast = system: BT-549 breast
COLO 205 colon = system: COLO 205 colon
SF-539 CNS = system: SF-539 CNS
HS 578T breast = system: HS 578T breast
MDA-MB-468 breast = system: MDA-MB-468 breast
T-47D breast = system: T-47D breast
UO-31 renal = system: UO-31 renal
KM12 colon = system: KM12 colon
IGROV1 ovarian = system: IGROV1 ovarian
SW-620 colon = system: SW-620 colon
HOP-62 NSCLC = system: HOP-62 NSCLC
DU-145 prostate = system: DU-145 prostate
UACC-62 melanoma = system: UACC-62 melanoma
LOX IMVI melanoma = system: LOX IMVI melanoma
CAKI-1 renal = system: CAKI-1 renal
ACHN renal = system: ACHN renal
OVCAR-3 ovarian = system: OVCAR-3 ovarian
M14 melanoma = system: M14 melanoma
HCT-15 colon = system: HCT-15 colon
K-562 leukemia = system: K-562 leukemia

SMILES: CCS(=O)(=O)c1cccc(-c2cc(C(=O)NC3CCN(C)CC3)c(C)c3[nH]c4ncc(C)cc4c23)c1
- GI50 (NCI-H522 lung): 19.4 nM
- TGI (NCI-H522 lung): 126 nM
- GI50 (SF-295 CNS): 399 nM
- TGI (SF-295 CNS): 3.61 µM
- GI50 (OVCAR-8 ovarian): 309 nM
- TGI (OVCAR-8 ovarian): 1490 nM
- GI50 (A549 NSCLC): 58 nM
- TGI (A549 NSCLC): 1200 nM
- GI50 (HT29 colon): 215 nM
- TGI (HT29 colon): 10.5 µM
- GI50 (NCI-H460 NSCLC): 36.2 nM
- TGI (NCI-H460 NSCLC): 1080 nM
- GI50 (NCI-H226 lung): 39.2 nM
- TGI (NCI-H226 lung): 441 nM
- GI50 (RXF 393 renal): 112 nM
- TGI (RXF 393 renal): 384 nM
- GI50 (OVCAR-5 ovarian): 185 nM
- TGI (OVCAR-5 ovarian): 827 nM
- GI50 (SK-MEL-5 melanoma): 264 nM
- TGI (SK-MEL-5 melanoma): 1680 nM
- GI50 (SK-MEL-28 melanoma): 279 nM
- TGI (SK-MEL-28 melanoma): 1300 nM
- GI50 (MALME-3M melanoma): 240 nM
- TGI (MALME-3M melanoma): 1460 nM
- TGI (CCRF-CEM leukemia): 12.1 nM
- GI50 (MCF7 breast): 12.6 nM
- TGI (MCF7 breast): 2130 nM
- GI50 (HL-60(TB) leukemia): 31.8 nM
- TGI (HL-60(TB) leukemia): 126 nM
- GI50 ([…]-0 renal): 1000 nM
- TGI (786-0 renal): 2460 nM
- GI50 (OVCAR-4 ovarian): 953 nM
- TGI (OVCAR-4 ovarian): 5.04 µM
- GI50 (NCI-H322M lung): 541 nM
- TGI (NCI-H322M lung): 2440 nM
- GI50 (SNB-75 CNS): 101 nM
- TGI (SNB-75 CNS): 226 nM
- GI50 (SF-268 CNS): 17.8 nM
- TGI (SF-268 CNS): 91.1 nM
- GI50 (PC-3 prostate): 219 nM
- TGI (PC-3 prostate): 2710 nM
- GI50 (U251 glioblastoma): 202 nM
- TGI (U251 glioblastoma): 902 nM
- GI50 (RPMI-8226 leukemia): 49.7 nM
- TGI (RPMI-8226 leukemia): 226 nM
- GI50 (SK-OV-3 ovarian): 135 nM
- TGI (SK-OV-3 ovarian): 869 nM
- GI50 (NCI/ADR-RES ovarian): > 100 µM
- TGI (NCI/ADR-RES ovarian): > 100 µM
- GI50 (HCC-2998 colon): 168 nM
- TGI (HCC-2998 colon): 1240 nM
- GI50 (MDA-MB-435 melanoma): 366 nM
- TGI (MDA-MB-435 melanoma): 1900 nM
- GI50 (NCI-H23 lung): 66.9 nM
- TGI (NCI-H23 lung): 343 nM
- GI50 (UACC-257 melanoma): 139 nM
- TGI (UACC-257 melanoma): 935 nM
- GI50 (SNB-19 CNS): 192 nM
- TGI (SNB-19 CNS): 1390 nM
- GI50 (SN12C renal): 51.5 nM
- TGI (SN12C renal): 267 nM
- GI50 (A498 renal): 1400 nM
- TGI (A498 renal): 5.5 µM
- GI50 (EKVX NSCLC): 270 nM
- TGI (EKVX NSCLC): 1930 nM
- GI50 (TK-10 renal): 1740 nM
- TGI (TK-10 renal): 5.52 µM
- GI50 (BT-549 breast): 144 nM
- TGI (BT-549 breast): 326 nM
- GI50 (COLO 205 colon): 18.3 nM
- TGI (COLO 205 colon): 98.1 nM
- GI50 (SF-539 CNS): 59 nM
- TGI (SF-539 CNS): 233 nM
- GI50 (HS 578T breast): 58.1 nM
- TGI (HS 578T breast): 216 nM
- GI50 (MDA-MB-468 breast): 17.9 nM
- TGI (MDA-MB-468 breast): 88.6 nM
- GI50 (T-47D breast): 59.2 nM
- TGI (T-47D breast): 270 nM
- GI50 (UO-31 renal): 5.48 µM
- TGI (UO-31 renal): 19.1 µM
- GI50 (KM12 colon): 24.2 nM
- TGI (KM12 colon): 1110 nM
- GI50 (IGROV1 ovarian): 40.8 nM
- TGI (IGROV1 ovarian): 230 nM
- GI50 (SW-620 colon): 181 nM
- TGI (SW-620 colon): 1250 nM
- GI50 (HOP-62 NSCLC): 161 nM
- TGI (HOP-62 NSCLC): 1290 nM
- GI50 (DU-145 prostate): 343 nM
- TGI (DU-145 prostate): 4.34 µM
- GI50 (UACC-62 melanoma): 158 nM
- TGI (UACC-62 melanoma): 1120 nM
- GI50 (LOX IMVI melanoma): 84.9 nM
- TGI (LOX IMVI melanoma): 229 nM
- GI50 (CAKI-1 renal): 328 nM
- TGI (CAKI-1 renal): 5.34 µM
- GI50 (ACHN renal): 2370 nM
- TGI (ACHN renal): 13.2 µM
- GI50 (OVCAR-3 ovarian): 103 nM
- TGI (OVCAR-3 ovarian): 298 nM
- GI50 (M14 melanoma): 437 nM
- TGI (M14 melanoma): 2040 nM
- GI50 (HCT-15 colon): 3.96 µM
- TGI (HCT-15 colon): 19.8 µM
- GI50 (K-562 leukemia): 32.2 nM
- TGI (K-562 leukemia): 761 nM
